Measured values taken from US5840684A, “Glycopeptide antibiotic derivatives” (Eli Lilly and Company, priority 1995, dated 1998).
In brackets after ≈: the same amount, converted by molar mass.

Tests used:
[1] = system: vancomycin-susceptible enterococci; test: broth micro-dilution, mean geometric MIC; format: cell-based, Enterococcus faecium and Enterococcus faecalis; conditions: enterococci, 24-hour incubation
[2] = system: vancomycin-resistant enterococci; test: broth micro-dilution, mean geometric MIC; format: cell-based, Enterococcus faecium and Enterococcus faecalis; conditions: enterococci, 24-hour incubation
[3] = system: Staphylococcus aureus S13E; format: cell-based
Method: (§1) The MIC's were determined using a standard broth micro-dilution assay.

[4] = system: Staphylococcus aureus SA1199B; format: cell-based
Method: as §1

[5] = system: Streptococcus pneumoniae P1; test: broth micro-dilution MIC; format: cell-based
Method: (§2) The formula I compounds have in vitro and in vivo activity against Gram-positive pathogenic bacteria. The MIC's were determined using a standard broth micro-dilution assay.

Entercoccus faecium 180 = test: broth micro-dilution MIC; format: cell-based; conditions: Entercoccus faecium 180
Method: as §2

[6] = system: Staphylococcus epidermidis 270; test: broth micro-dilution MIC; format: cell-based
Method: as §2

[7] = system: Staphylococcus haemolyticus 105; test: broth micro-dilution MIC; format: cell-based
Method: as §2

Entercoccus faecium 2041 = test: broth micro-dilution MIC; format: cell-based; conditions: Entercoccus faecium 2041
Method: as §2

[8] = system: Staphylococcus aureus 447; test: broth micro-dilution MIC; format: cell-based
Method: as §1

[9] = system: Staphylococcus aureus X400; test: broth micro-dilution MIC; format: cell-based
Method: as §1

[10] = system: Streptococcus pyogenes C203; test: broth micro-dilution MIC; format: cell-based
Method: as §1

Entercoccus faecium 276 = test: broth micro-dilution MIC; format: cell-based
Method: as §1

[11] = system: Staphylococcus aureus X778; test: broth micro-dilution MIC; format: cell-based
Method: as §1

[12] = system: Staphylococcus aureus 489; test: broth micro-dilution MIC; format: cell-based
Method: as §1

[13] = system: Staphylococcus aureus SA1199A; test: broth micro-dilution MIC; format: cell-based
Method: as §1

[14] = system: Entercoccus faecium 180-1; test: broth micro-dilution MIC; format: cell-based
Method: as §1

[15] = system: Staphylococcus aureus 446; test: broth micro-dilution MIC; format: cell-based
Method: as §1

[16] = system: Staphylococcus aureus SA1199; test: broth micro-dilution MIC; format: cell-based
Method: as §1

[17] = system: Staphylococcus aureus 491; test: broth micro-dilution MIC; format: cell-based
Method: as §1

[18] = system: Enterococcus gallinarum 245; test: broth micro-dilution MIC; format: cell-based; conditions: Enterococcus gallinarum 245
Method: as §2

[19] = system: Staphylococcus haemolyticus 415; test: broth micro-dilution MIC; format: cell-based
Method: as §2

Row | Compound | mean geometric MIC, Vancomycin Sensitive Strains [1] [µg/mL] | mean geometric MIC, Vancomycin Resistant Strains [2] [µg/mL] | MIC [3] [µg/mL] | MIC [4] [µg/mL] | MIC [5] [µg/mL] | MIC (Entercoccus faecium 180) [µg/mL] | MIC [6] [µg/mL] | MIC [7] [µg/mL] | MIC (Entercoccus faecium 2041) [µg/mL] | MIC [8] [µg/mL] | MIC [9] [µg/mL] | MIC [10] [µg/mL] | MIC (Entercoccus faecium 276) [µg/mL] | MIC [11] [µg/mL] | MIC [12] [µg/mL] | MIC [14] [µg/mL] | MIC [15] [µg/mL] | MIC [16] [µg/mL] | MIC [17] [µg/mL] | MIC [18] [µg/mL] | other results
1 | CNC(CC(C)C)C(=O)NC1C(=O)NC(CC(N)=O)C(=O)NC2C(=O)NC3C(=O)NC(C(=O)NC(C(=O)O)c4cc(O)cc(O)c4-c4cc3ccc4O)C(OC3CC(C)(N)C(O)C(C)O3)c3ccc(c(Cl)c3)Oc3cc2cc(c3OC2OC(CO)C(O)C(O)C2OC2CC(C)(NCc3ccc(OCCCC#N)cc3)C(O)C(C)O2)Oc2ccc(cc2Cl)C1O (centres unmarked) [Compound 55] | 1.7 | 13 | 0.5 (≈ 0.283 µM) | 0.5 (≈ 0.283 µM) | ≤ 0.06 | 2 (≈ 1.13 µM) | 1 (≈ 0.566 µM) | 4 (≈ 2.27 µM) | 0.125 (≈ 0.0708 µM) | 4 (≈ 2.27 µM) | ≤ 0.06 | ≤ 0.06 | 0.5 (≈ 0.283 µM) | 0.5 (≈ 0.283 µM) | 1 (≈ 0.566 µM) | ≤ 0.06 | 0.5 (≈ 0.283 µM) | 0.5 (≈ 0.283 µM) | 0.5 (≈ 0.283 µM) |  | MIC [13]: ≤ 0.06 µg/mL
2 | CNC(CC(C)C)C(=O)NC1C(=O)NC(CC(N)=O)C(=O)NC2C(=O)NC3C(=O)NC(C(=O)NC(C(=O)O)c4cc(O)cc(O)c4-c4cc3ccc4O)C(OC3CC(C)(N)C(O)C(C)O3)c3ccc(c(Cl)c3)Oc3cc2cc(c3OC2OC(CO)C(O)C(O)C2OC2CC(C)(NCc3ccc(OCCC4CCCCC4)cc3)C(O)C(C)O2)Oc2ccc(cc2Cl)C1O (centres unmarked) [Compound 127] | 0.33 | 1.2 | 2 (≈ 1.11 µM) | 2 (≈ 1.11 µM) | ≤ 0.06 | ≤ 0.06 | ≤ 0.06 | 2 (≈ 1.11 µM) | ≤ 0.06 | 2 (≈ 1.11 µM) | 2 (≈ 1.11 µM) | ≤ 0.06 | ≤ 0.06 | 1 (≈ 0.553 µM) | 2 (≈ 1.11 µM) | ≤ 0.06 | 1 (≈ 0.553 µM) | 2 (≈ 1.11 µM) | 1 (≈ 0.553 µM) | 4 (≈ 2.21 µM) | MIC [19]: 4 µg/mL (≈ 2.21 µM)
3 | CNC(CC(C)C)C(=O)NC1C(=O)NC(CC(N)=O)C(=O)NC2C(=O)NC3C(=O)NC(C(=O)NC(C(=O)O)c4cc(O)cc(O)c4-c4cc3ccc4O)C(OC3CC(C)(N)C(O)C(C)O3)c3ccc(c(Cl)c3)Oc3cc2cc(c3OC2OC(CO)C(O)C(O)C2OC2CC(C)(NCc3cccc(OCc4ccc5ccccc5n4)c3)C(O)C(C)O2)Oc2ccc(cc2Cl)C1O (centres unmarked) [Compound 125] | 0.14 | 3.4 | 1 (≈ 0.544 µM) | 2 (≈ 1.09 µM) | ≤ 0.06 | 1 (≈ 0.544 µM) | 1 (≈ 0.544 µM) | 4 (≈ 2.17 µM) | ≤ 0.06 | 2 (≈ 1.09 µM) | 1 (≈ 0.544 µM) | ≤ 0.06 | 2 (≈ 1.09 µM) | 2 (≈ 1.09 µM) | 2 (≈ 1.09 µM) | ≤ 0.06 | 4 (≈ 2.17 µM) | 0.5 (≈ 0.272 µM) | 1 (≈ 0.544 µM) | 12 (≈ 6.52 µM) | MIC [19]: 2 µg/mL (≈ 1.09 µM)
4 | CNC(CC(C)C)C(=O)NC1C(=O)NC(CC(N)=O)C(=O)NC2C(=O)NC3C(=O)NC(C(=O)NC(C(=O)O)c4cc(O)cc(O)c4-c4cc3ccc4O)C(OC3CC(C)(N)C(O)C(C)O3)c3ccc(c(Cl)c3)Oc3cc2cc(c3OC2OC(CO)C(O)C(O)C2OC2CC(C)(NCc3cc4ccccc4c4ccccc34)C(O)C(C)O2)Oc2ccc(cc2Cl)C1O (centres unmarked) [Compound 11] | 0.22 |  | 0.5 (≈ 0.28 µM) | 2 (≈ 1.12 µM) | ≤ 0.06 | 1 (≈ 0.561 µM) | 2 (≈ 1.12 µM) | 4 (≈ 2.24 µM) | 0.5 (≈ 0.28 µM) | 4 (≈ 2.24 µM) | 0.5 (≈ 0.28 µM) | ≤ 0.06 | 1 (≈ 0.561 µM) | 0.25 (≈ 0.14 µM) | 1 (≈ 0.561 µM) | ≤ 0.06 | 4 (≈ 2.24 µM) | 2 (≈ 1.12 µM) | 1 (≈ 0.561 µM) | ≤ 0.06 | MIC [19]: 2 µg/mL (≈ 1.12 µM); MIC [13]: ≤ 0.06 µg/mL
5 | CNC(CC(C)C)C(=O)NC1C(=O)NC(CC(N)=O)C(=O)NC2C(=O)NC3C(=O)NC(C(=O)NC(C(=O)O)c4cc(O)cc(O)c4-c4cc3ccc4O)C(OC3CC(C)(N)C(O)C(C)O3)c3ccc(c(Cl)c3)Oc3cc2cc(c3OC2OC(CO)C(O)C(O)C2OC2CC(C)(NCc3ccc4c(c3O)Cc3ccccc3-4)C(O)C(C)O2)Oc2ccc(cc2Cl)C1O (centres unmarked) [Compound 103] | 0.33 | 4.0 | 1 (≈ 0.56 µM) | 2 (≈ 1.12 µM) | ≤ 0.06 |  | 1 (≈ 0.56 µM) | 4 (≈ 2.24 µM) | ≤ 0.06 | 1 (≈ 0.56 µM) | ≤ 0.06 | ≤ 0.06 | 0.25 (≈ 0.14 µM) | 0.5 (≈ 0.28 µM) | ≤ 0.06 | ≤ 0.06 | 0.5 (≈ 0.28 µM) | 1 (≈ 0.56 µM) | 1 (≈ 0.56 µM) | 8 (≈ 4.48 µM) | MIC [19]: 8 µg/mL (≈ 4.48 µM); MIC [13]: ≤ 0.06 µg/mL
6 | CNC(CC(C)C)C(=O)NC1C(=O)NC(CC(N)=O)C(=O)NC2C(=O)NC3C(=O)NC(C(=O)NC(C(=O)O)c4cc(O)cc(O)c4-c4cc3ccc4O)C(OC3CC(C)(N)C(O)C(C)O3)c3ccc(c(Cl)c3)Oc3cc2cc(c3OC2OC(CO)C(O)C(O)C2OC2CC(C)(NCc3ccc4c(c3)OCCO4)C(O)C(C)O2)Oc2ccc(cc2Cl)C1O (centres unmarked) [Compound 56] |  | 19 | 0.125 (≈ 0.0718 µM) | 0.5 (≈ 0.287 µM) | ≤ 0.06 | 2 (≈ 1.15 µM) | 1 (≈ 0.575 µM) | 4 (≈ 2.3 µM) | 0.25 (≈ 0.144 µM) | 2 (≈ 1.15 µM) | ≤ 0.06 | ≤ 0.06 | 0.25 (≈ 0.144 µM) | 0.125 (≈ 0.0718 µM) | 1 (≈ 0.575 µM) | ≤ 0.06 | 0.5 (≈ 0.287 µM) | 0.125 (≈ 0.0718 µM) | 0.5 (≈ 0.287 µM) | 16 (≈ 9.19 µM) | MIC [19]: 16 µg/mL (≈ 9.19 µM); MIC [13]: ≤ 0.06 µg/mL
